The values that follow come from US5278146A, “CRF analogs” (The Salk Institute for Biological Studies, priority 1992, dated 1994).

[ ]: non-standard residue; d: D form. Nle = CCCC[C@H](N)C(=O)O; Nva = CCC[C@H](N)C(=O)O

The nature of experiment [1]: In vivo testing (procedure of C. Rivier et al., Science 218, 377): duration of potency and blood pressure. The following applies: for Lowering of blood pressure: administered peripherally (where stated).
The test system of experiment [2] is cultured rat pituitary cells. As to the kind of experiment: Secretion of ACTH and β-endorphin by cultured rat pituitary cells. The format is cell-based. The following applies: for Stimulation of the secretion of ACTH and β-END-LI: general procedure of Example III. Here is the method:
The synthetic peptide [D-Glu^20 ]-oCRF is examined for its effects on the secretion of ACTH and β-endorphin vitro and was also in vivo. The potency of synthetic [D-Glu^20 ]-oCRF to stimulate the secretion of ACTH and β-endorphin by cultured rat pituitary cells is measured using the procedure as generally set forth in Endocrinology, 91, 562 (1972) and compared against synthetic oCRF.

Turning to `CC[C@H](C)[C@H](NC(=O)[C@@H](NC(=O)[C@H](CC(=O)O)NC(=O)[C@H](CC(C)C)NC(=O)[C@H](CC(C)C)NC(=O)[C@H](CC(C)C)NC(=O)[C@H](CCCNC(=N)N)NC(=O)[C@H](CC(N)=O)NC(=O)[C@H](CC(N)=O)NC(=O)[C@H](C)NC(=O)[C@H](C)NC(=O)[C@H](CCC(N)=O)NC(=O)[C@H](CCC(=O)O)NC(=O)[C@H](CCCCN)NC(=O)[C@H](CCC(=O)O)NC(=O)[C@H](CCCCN)NC(=O)[C@H](CCC(=O)O)NC(=O)[C@H](CCC(N)=O)NC(=O)[C@H](CCCCN)NC(=O)[C@H](CCCNC(=N)N)NC(=O)[C@H](C)NC(=O)[C@@H](CCC(=O)O)NC(=O)[C@@H](NC(=O)[C@H](CCSC)NC(=O)[C@H](CCCCN)NC(=O)[C@H](CCCNC(=N)N)NC(=O)[C@H](CC(C)C)NC(=O)[C@H](CC(C)C)NC(=O)[C@H](CCC(=O)O)NC(=O)[C@@H](Cc1ccccc1)NC(=O)[C@H](CO)NC(=O)[C@H](CC(C)C)NC(=O)[C@H](CC(=O)O)NC(=O)[C@@H](NC(=O)[C@H](CO)NC(=O)[C@@H](NC(=O)[C@@H]1CCCN1C(=O)[C@@H]1CCCN1C(=O)CNC(=O)[C@@H]1CCC(=O)N1)[C@@H](C)CC)[C@@H](C)CC)[C@@H](C)CC)[C@@H](C)CC)C(N)=O`, the “Lowering of blood pressure” value in experiment [1] is recorded as “very significant lowering of blood pressure”. The “Stimulation of the secretion of ACTH and β-END-LI” value (“Stimulation” below) in experiment [2] is “stimulates the secretion of ACTH and β-END-LI”.

Turning to `CCCC[C@H](NC(=O)[C@@H](CCC(=O)O)NC(=O)[C@H](CC(C)C)NC(=O)[C@@H](NC(=O)[C@H](CCC(=O)O)NC(=O)[C@H](CCCNC(=N)N)NC(=O)[C@H](CC(C)C)NC(=O)[C@H](CC(C)C)NC(=O)[C@H](Cc1c[nH]cn1)NC(=O)[C@H](Cc1ccccc1)NC(=O)[C@@H](NC(=O)[C@H](CC(C)C)NC(=O)[C@H](CC(=O)O)NC(=O)[C@H](CC(C)C)NC(=O)[C@H](CO)NC(=O)[C@@H](NC(=O)[C@@H]1CCCN1C(=O)[C@@H]1CCCN1C(=O)[C@H](CCC(=O)O)NC(=O)[C@H](CCC(N)=O)NC(=O)[C@@H](N)CO)[C@@H](C)CC)[C@@H](C)O)C(C)C)C(=O)N[C@H](C(=O)N[C@@H](CCCCN)C(=O)N[C@@H](C)C(=O)N[C@@H](CC(=O)O)C(=O)N[C@@H](CCC(N)=O)C(=O)N[C@@H](CC(C)C)C(=O)N[C@@H](C)C(=O)N[C@@H](CCC(N)=O)C(=O)N[C@@H](CCC(N)=O)C(=O)N[C@@H](C)C(=O)N[C@H](Cc1c[nH]cn1)C(=O)N[C@@H](CO)C(=O)N[C@@H](CC(N)=O)C(=O)N[C@@H](CCCNC(=N)N)C(=O)N[C@@H](CCCCN)C(=O)N[C@@H](CC(C)C)C(=O)N[C@@H](CC(C)C)C(=O)N[C@@H](CC(=O)O)C(=O)N[C@H](C(=O)N[C@@H](C)C(N)=O)[C@@H](C)CC)[C@@H](C)O` [[D-Glu^20, Nle^21, D-His^32]-oCRF], the “Lowering of blood pressure” value in experiment [1] was “very significant lowering of blood pressure”. Also, in experiment [2], the “Stimulation” value was “stimulates the secretion of ACTH and β-END-LI”.

Take `CCCC[C@H](NC(=O)[C@@H](CCC(=O)O)NC(=O)[C@H](CC(C)C)NC(=O)[C@@H](NC(=O)[C@H](CCC(=O)O)NC(=O)[C@H](CCCNC(=N)N)NC(=O)[C@H](CC(C)C)NC(=O)[C@H](CC(C)C)NC(=O)[C@H](Cc1c[nH]cn1)NC(=O)[C@H](Cc1ccccc1)NC(=O)[C@@H](NC(=O)[C@H](CC(C)C)NC(=O)[C@H](CC(=O)O)NC(=O)[C@H](CC(C)C)NC(=O)[C@H](CO)NC(=O)[C@@H](NC(=O)[C@@H]1CCCN1C(=O)[C@@H]1CCCN1C(=O)[C@H](CCC(=O)O)NC(=O)[C@H](CCC(N)=O)NC(=O)[C@@H](N)CO)[C@@H](C)CC)[C@@H](C)O)C(C)C)C(=O)N[C@H](C(=O)N[C@@H](CCCCN)C(=O)N[C@@H](C)C(=O)N[C@@H](CC(=O)O)C(=O)N[C@@H](CCC(N)=O)C(=O)N[C@@H](CC(C)C)C(=O)N[C@@H](C)C(=O)N[C@@H](CCC(N)=O)C(=O)N[C@@H](CCC(N)=O)C(=O)N[C@@H](C)C(=O)N[C@@H](Cc1c[nH]cn1)C(=O)N[C@@H](CO)C(=O)N[C@@H](CC(N)=O)C(=O)N[C@@H](CCCNC(=N)N)C(=O)N[C@@H](CCCCN)C(=O)N[C@@H](CC(C)C)C(=O)N[C@@H](CC(C)C)C(=O)N[C@@H](CC(=O)O)C(=O)N[C@H](C(=O)N[C@@H](C)C(N)=O)[C@@H](C)CC)[C@@H](C)O` [[D-Glu^20, Nle^21]-oCRF]: in experiment [1], the “Lowering of blood pressure” value was “very significant lowering of blood pressure”. Also, in experiment [2], the “Stimulation” value was “stimulates the secretion of ACTH and β-END-LI”.

For `CC[C@H](C)[C@H](NC(=O)[C@H](CC(=O)O)NC(=O)[C@H](CC(C)C)NC(=O)[C@H](CC(C)C)NC(=O)[C@H](CCCCN)NC(=O)[C@H](CCCNC(=N)N)NC(=O)[C@H](CC(N)=O)NC(=O)[C@H](CO)NC(=O)[C@H](Cc1c[nH]cn1)NC(=O)[C@H](C)NC(=O)[C@H](CCC(N)=O)NC(=O)[C@H](CCC(N)=O)NC(=O)[C@H](C)NC(=O)[C@H](CC(C)C)NC(=O)[C@H](CCC(N)=O)NC(=O)[C@H](CC(=O)O)NC(=O)[C@H](C)NC(=O)[C@H](CCCCN)NC(=O)[C@@H](NC(=O)[C@H](CCSC)NC(=O)[C@@H](CCC(=O)O)NC(=O)[C@H](CC(C)C)NC(=O)[C@@H](NC(=O)[C@H](CCC(=O)O)NC(=O)[C@H](CCCNC(=N)N)NC(=O)[C@H](CC(C)C)NC(=O)[C@H](CC(C)C)NC(=O)[C@H](Cc1c[nH]cn1)NC(=O)[C@H](Cc1ccccc1)NC(=O)[C@@H](NC(=O)[C@H](CC(C)C)NC(=O)[C@H](CC(=O)O)NC(=O)[C@H](CC(C)C)NC(=O)[C@H](CO)NC(=O)[C@@H](NC(=O)[C@@H]1CCCN1C(=O)[C@@H]1CCCN1C(=O)[C@H](CCC(=O)O)NC(=O)[C@H](CCC(N)=O)NC(=O)[C@@H](N)CO)[C@@H](C)CC)[C@@H](C)O)C(C)C)[C@@H](C)O)C(=O)N[C@@H](C)C(N)=O` [[D-Glu^20]-oCRF], the “Lowering of blood pressure” value in experiment [1] is on record as “significant lowering of blood pressure”. For the same compound, in experiment [1] (in vivo), the “Duration of potency in vivo” value is listed as “longer duration of potency”. In addition, in experiment [2] (cultured rat pituitary cells, read-out: Concentration at which half-maximal responses are observed (ACTH and β-endorphin secretion)), the EC50 was about 170 pM. Moreover, the “Potency relative to the native hormone” value in experiment [2] (in vitro, compared against synthetic oCRF) is “about twice as potent as the native hormone”. Further, the “Secretory response to maximal concentrations” value in experiment [2] (maximal (1-5 nM) concentrations) is listed as “at a plateau level”.

Turning to “Bz-Ser-Leu-Asp-Leu-Thr-D-Phe-His-Leu-Leu-Arg-Glu-Val-Leu-Glu-Nle-Ala-Arg-Ala-Glu-Gln-Leu-Ala-Gln-Gln-Ala-D-His-Ser-Asn-Arg-Lys-Leu-Nle-Glu-Ile-Ile-NH2”, the “Lowering of blood pressure” value in experiment [1] was “very significant lowering of blood pressure”. Moreover, in experiment [2], the “Stimulation” value was “stimulates the secretion of ACTH and β-END-LI”.

“H-D-Pro-Pro-Ile-Ser-Leu-Asp-Leu-Thr-D-Phe-His-Leu-Leu-Arg-Glu-Val-Leu-Glu- Nle-Ala-Arg-Ala-Glu-Gln-Leu-Ala-Gln-Gln-Ala-His-Ser-Asn-Arg-Lys-CML-Nle-Ile-Ile-NH2”: the “Lowering of blood pressure” value in experiment [1] is reported as “very significant lowering of blood pressure”. The “Stimulation” value in experiment [2] is “stimulates the secretion of ACTH and β-END-LI”.

As for “H-SQEPPISLDLTFHLLREVL[dE][Nle]TK[dA]DQLAQQAHSNRKL[Nle]DIA-NH2 [[D-Glu^20, D-Ala^24, Nle^21,38]-oCRF]”, in experiment [1], the “Lowering of blood pressure” value was “very significant lowering of blood pressure”. Besides, in experiment [2], the “Stimulation” value is “stimulates the secretion of ACTH and β-END-LI”.

As to “H-SQEPPISLDLTFHLLRE[Nle]L[dE][Nle]AKAEQEAEQA[dH]LNRLLLEEA-NH2 [[Nle^18,21, D-Glu^20, D-His^32]-AHC]”, the “Lowering of blood pressure” value in experiment [1] is “very significant lowering of blood pressure”. The “Stimulation” value in experiment [2] is “stimulates the secretion of ACTH and β-END-LI”.

For the compound “H-SQEPPISLDLT[dF]HLLREML[dE]RAKAEQEAEQAALNRLLLEEA-NH2 [[D-Phe^12, D-Glu^20, Arg^21]-AHC]”, the “Lowering of blood pressure” value in experiment [1] is “very significant lowering of blood pressure”. The “Stimulation” value in experiment [2] was “stimulates the secretion of ACTH and β-END-LI”.

For the compound “H-SQEPPISLDLT[dF]HLLRE[Nle]LE[Nle]AK[dA]EQEAEQAALNRLLLEEA-NH2 [[D-Phe^12, Nle^18,21, D-Ala^24]-AHC]”, in experiment [1], the “Lowering of blood pressure” value is recorded as “very significant lowering of blood pressure”. For the same compound, the “Stimulation” value in experiment [2] was “stimulates the secretion of ACTH and β-END-LI”.

Consider “H-SQ[dY]PPISLDLTFHLLRE[Nle]L[dE][Nva]AK[dA]EQEAEQAALNRLLLEEA-NH2”, for which the “Lowering of blood pressure” value in experiment [1] was “very significant lowering of blood pressure”. The “Stimulation” value in experiment [2] is “stimulates the secretion of ACTH and β-END-LI”.

Regarding “H-Ser-Gln-Glu-Pro-Pro-Ile-Ser-Leu-Asp-Leu-Thr-D-Phe-Glu-Leu-Leu-Arg-Glu-Met-T-Glu-Ile-Ala-Lys-Ala-Glu-Gln-Glu-Ala-Glu-Gln-Ala-Ala-Leu-Asn-Arg-Lys-Tyr-Leu-Glu-Glu-Val-NH2”, the “Lowering of blood pressure” value in experiment [1] is given as “very significant lowering of blood pressure”. Further, the “Stimulation” value in experiment [2] was “stimulates the secretion of ACTH and β-END-LI”.

On to “H-Ser-Glu-Glu-Pro-Pro-Ile-Ser-Leu-Asp-Leu-Thr-D-Phe-Glu-Lue-Leu-Arg-Glu-Nle-Leu-Glu-Met-Glu-Orn-Ala-Glu-Lys-Glu-Ala-Glu-Gln-Ala-Ala-Leu-Asn-Arg-Leu-Leu-Leu-Glu-Glu-Ala-NH2”, for which, in experiment [1], the “Lowering of blood pressure” value is reported as “very significant lowering of blood pressure”. For the same compound, in experiment [2], the “Stimulation” value is “stimulates the secretion of ACTH and β-END-LI”.

In the case of “H-pGlu-Glu-Pro-Pro-Ile-Ser-Leu-Asp-:-Thr-D-Phe-His-Leu-Leu-Arg-Glu-Val-Leu-Glu-Met-Ala-Arg-D-Ala-Glu-Gln-Leu-Ala-Gln-Gln-Ala-His-Ser-Asn-Arg-Lys-Leu- Met-Glu-Ile-Ile-NH2 [[pGlu^2, D-Phe^12, D-Ala^24]-rCRF(2-41)]”, the “Lowering of blood pressure” value in experiment [1] was “very significant lowering of blood pressure”. For the same compound, the “Stimulation” value in experiment [2] is “stimulates the secretion of ACTH and β-END-LI”.
